Measurements taken from US20250163104A1, “MACROCYCLIC IMMUNOMODULATORS” (priority 2021, published 2025).
Where a SMILES comes first, the peptide text is derived from it. Bridges are numbered along the chain shown (N, C = ends). [ ]: non-standard residue; d: D form. The star is where a group is joined. ξ: configuration not given here. Phe(4-COOH) = N[C@@H](Cc1ccc(C(=O)O)cc1)C(=O)O; Bip = N[C@@H](Cc1ccc(-c2ccccc2)cc1)C(=O)O; Phe(3-CN) = N#Cc1cccc(C[C@H](N)C(=O)O)c1; Phe(4-CN) = N#Cc1ccc(C[C@H](N)C(=O)O)cc1; Phe(4-Cl) = N[C@@H](Cc1ccc(Cl)cc1)C(=O)O; Phe(3-Me) = Cc1cccc(C[C@H](N)C(=O)O)c1; Val(3-OH) = CC(C)(O)[C@H](N)C(=O)O; ξW = NC(Cc1c[nH]c2ccccc12)C(=O)O; 3Pal = N[C@@H](Cc1cccnc1)C(=O)O; 4Pal = N[C@@H](Cc1ccncc1)C(=O)O; 2Thi = N[C@@H](Cc1cccs1)C(=O)O; Cha = N[C@@H](CC1CCCCC1)C(=O)O; Cit = NC(=O)NCCC[C@H](N)C(=O)O; Thr(3ξ) = CC(O)[C@H](N)C(=O)O; Carboxymethyl = O=C(O)C*; Orn = NCCC[C@H](N)C(=O)O; Pra = C#CC[C@H](N)C(=O)O; Dab = NCC[C@H](N)C(=O)O; Dap = NC[C@H](N)C(=O)O; Bn = c1ccc(C*)cc1

These compounds were tested against T1, human PD-1 / PD-L1-Ig binding on Jurkat cell line over-expressing human PD-1 (Jurkat-PD-1) (Homo sapiens, UniProt Q15116) (assay: Jurkat-PD-1 Cell Binding High-Content Screening Assay (CBA)). Settings: Jurkat-PD-1 cells, PE-labeled PD-L1-Ig 20 nM final; read-out: Jurkat HPD1_PDL1 IC50.
T1 construct: expressed in transfected cells; host or cells: Jurkat
Type: cell-based
Method in brief: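 Cell-bound PE-labeled PD-L1-Ig (20 nM final, 1 h) measured by high-content imaging after fixation and Hoechst 33342 counterstain. Compound was applied first for 2 h at 37° C. to Jurkat cells over-expressing human PD-1 in DMEM with 10% FCS.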

T1 sequence (Q15116 25-288): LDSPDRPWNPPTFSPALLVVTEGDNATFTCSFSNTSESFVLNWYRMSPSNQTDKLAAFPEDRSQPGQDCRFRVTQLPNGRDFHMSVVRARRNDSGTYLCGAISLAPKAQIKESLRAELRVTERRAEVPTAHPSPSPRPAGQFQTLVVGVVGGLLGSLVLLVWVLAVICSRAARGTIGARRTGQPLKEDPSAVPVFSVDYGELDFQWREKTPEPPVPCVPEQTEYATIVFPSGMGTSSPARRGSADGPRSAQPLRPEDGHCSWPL

IC50 [µM]	Compound
0.128	CC(C)C[C@H]1NC(=O)[C@H](CCCN)NC(=O)[C@H](CCC(=O)O)NC(=O)[C@H](Cc2ccc(-c3ccccc3)cc2)NC(=O)[C@H](C(C)C)NC(=O)[C@H](Cc2c[nH]c3ccccc23)NC(=O)[C@H](CC(=O)O)NC(=O)[C@H](Cc2ccc(OCC(=O)O)cc2)NC(=O)[C@H](CN)NC(=O)CSC[C@@H](C(=O)N[C@@H](C)C(N)=O)NC(=O)[C@H]([C@@H](C)O)NC(=O)[C@H](C(C)C)NC(=O)[C@H](Cc2ccc(Cl)cc2)NC(=O)[C@H](CCN)NC1=O [Compound 1472] ({CH2CO}-[Dap]Y(Carboxymethyl)DWV[Bip]E[Orn][dL][Dab][Phe(4-Cl)]VTCA-NH2; thioether N-14)
0.0059	CC(C)C[C@H]1NC(=O)[C@H](CCCN)NC(=O)[C@H](C(C)C)NC(=O)[C@H](Cc2ccc(-c3ccccc3)cc2)NC(=O)[C@H](C(C)C)NC(=O)[C@H](Cc2c[nH]c3ccccc23)NC(=O)[C@H](CC(=O)O)NC(=O)[C@H](Cc2ccc(OCC(=O)O)cc2)NC(=O)[C@H](Cc2cnc[nH]2)NC(=O)CSC[C@@H](C(=O)N[C@@H](CC(N)=O)C(N)=O)NC(=O)[C@H](C(C)O)NC(=O)[C@H](C(C)C)NC(=O)[C@H](CC2CCCCC2)NC(=O)[C@H](CCN)NC1=O (stereo partly drawn) [Compound 2548] ({CH2CO}-HY(Carboxymethyl)DWV[Bip]V[Orn][dL][Dab][Cha]V[Thr(3ξ)]CN-NH2; thioether N-14)
0.0191	CC(C)C[C@H]1NC(=O)[C@H](CCCN)NC(=O)[C@H](CCC(=O)O)NC(=O)[C@H](Cc2ccc(-c3ccccc3)cc2)NC(=O)[C@H](C(C)C)NC(=O)[C@H](Cc2c[nH]c3ccccc23)NC(=O)[C@H](CC(=O)O)NC(=O)[C@H](Cc2cccnc2)NC(=O)[C@H](Cc2ccccc2)NC(=O)CSC[C@@H](C(=O)N[C@@H](C)C(N)=O)NC(=O)[C@H]([C@@H](C)O)NC(=O)[C@H](C(C)C)NC(=O)[C@H](CC2CCCCC2)NC(=O)[C@H](CCN)NC1=O [Compound 2171] ({CH2CO}-F[3Pal]DWV[Bip]E[Orn][dL][Dab][Cha]VTCA-NH2; thioether N-14)
0.016	C#CC[C@H](NC(=O)[C@H](CCN)NC(=O)[C@@H]1CSCC(=O)N[C@@H](CN)C(=O)N[C@@H](Cc2ccc(OCC(=O)O)cc2)C(=O)N[C@@H](CC(=O)O)C(=O)N[C@@H](Cc2cccc(C)c2)C(=O)N[C@@H](C(C)C)C(=O)N[C@@H](Cc2ccc(-c3ccccc3)cc2)C(=O)N[C@@H](CCCNC(N)=O)C(=O)N[C@@H](CCCN)C(=O)N[C@H](CC(C)C)C(=O)N[C@@H](CCN)C(=O)N[C@@H](CC2CCCCC2)C(=O)N[C@@H](C(C)C)C(=O)N[C@@H]([C@@H](C)O)C(=O)N1)C(N)=O [Compound 2261] ({CH2CO}-[Dap]Y(Carboxymethyl)D[Phe(3-Me)]V[Bip][Cit][Orn][dL][Dab][Cha]VTC[Dab][Pra]-NH2; thioether N-14)
0.0107	Cc1cccc(C[C@@H]2NC(=O)[C@H](CC(=O)O)NC(=O)[C@H](Cc3cccc(C#N)c3)NC(=O)[C@H](Cc3ccncc3)NC(=O)CSC[C@@H](C(=O)N[C@@H](CCN)C(N)=O)NC(=O)[C@H](CO)NC(=O)[C@H](C(C)(C)O)NC(=O)[C@H](CC3CCCCC3)NC(=O)[C@H](CCN)NC(=O)[C@@H](CC(C)C)NC(=O)[C@H](CCCN)NC(=O)[C@H](Cc3ccc(OCC(=O)O)cc3)NC(=O)[C@H](Cc3ccc(-c4ccccc4)cc3)NC(=O)[C@H](Cc3ccc(C(=O)O)cc3)NC2=O)c1 [Compound 2626] ({CH2CO}-[4Pal][Phe(3-CN)]D[Phe(3-Me)][Phe(4-COOH)][Bip]Y(Carboxymethyl)[Orn][dL][Dab][Cha][Val(3-OH)]SC[Dab]-NH2; thioether N-14)
0.344	CC(C)C[C@H]1NC(=O)[C@H](CCCN)NC(=O)[C@H](CCC(=O)O)NC(=O)[C@H](Cc2ccc(-c3ccccc3)cc2)NC(=O)[C@H](C(C)C)NC(=O)[C@H](Cc2c[nH]c3ccccc23)NC(=O)[C@H](COCc2ccccc2)NC(=O)[C@H](Cc2ccc(OCC(=O)O)cc2)NC(=O)[C@H](CN)NC(=O)CSC[C@@H](C(=O)N[C@@H](C)C(N)=O)NC(=O)[C@H]([C@@H](C)O)NC(=O)[C@H](C(C)C)NC(=O)[C@H](CC2CCCCC2)NC(=O)[C@H](CCN)NC1=O [Compound 1497] ({CH2CO}-[Dap]Y(Carboxymethyl)S(Bn)WV[Bip]E[Orn][dL][Dab][Cha]VTCA-NH2; thioether N-14)
0.0141	CC(C)C[C@@H]1NC(=O)C(Cc2c[nH]c3ccccc23)NC(=O)[C@H](CC(=O)O)NC(=O)[C@H](Cc2ccc(O)cc2)NC(=O)[C@H](Cc2ccccc2)NC(=O)CSC[C@@H](C(=O)N[C@@H](C)C(N)=O)NC(=O)[C@H](CO)NC(=O)[C@H](C(C)C)NC(=O)[C@H](CC(C)C)NC(=O)[C@H](CC(N)=O)NC(=O)[C@@H](CC(C)C)NC(=O)[C@H](CCN)NC(=O)[C@H](C(C)C)NC(=O)[C@H](Cc2ccc(-c3ccccc3)cc2)NC1=O (stereo partly drawn) [Compound 1214] ({CH2CO}-FYD[ξW]L[Bip]V[Dab][dL]NLVSCA-NH2; thioether N-14)
0.0146	CC(C)C[C@H]1NC(=O)[C@H](CCCN)NC(=O)[C@H](CCC(=O)O)NC(=O)[C@H](Cc2ccc(-c3ccccc3)cc2)NC(=O)[C@H](C(C)C)NC(=O)[C@H](Cc2cccs2)NC(=O)[C@H](CC(=O)O)NC(=O)[C@H](Cc2cccs2)NC(=O)[C@H](Cc2ccc(OCC(=O)O)cc2)NC(=O)CSC[C@@H](C(=O)N[C@@H](C)C(N)=O)NC(=O)[C@H]([C@@H](C)O)NC(=O)[C@H](C(C)C)NC(=O)[C@H](CC2CCCCC2)NC(=O)[C@H](CCN)NC1=O [Compound 2206] ({CH2CO}-Y(Carboxymethyl)[2Thi]D[2Thi]V[Bip]E[Orn][dL][Dab][Cha]VTCA-NH2; thioether N-14)
0.0173	CC(=O)NCCCC[C@@H]1NC(=O)[C@H](CCCNC(N)=O)NC(=O)[C@H](Cc2ccc(-c3ccccc3)cc2)NC(=O)[C@H](C(C)C)NC(=O)[C@H](Cc2cccc(C)c2)NC(=O)[C@H](CC(N)=O)NC(=O)[C@H](Cc2ccc(OCC(=O)O)cc2)NC(=O)[C@H](Cc2ccccc2)NC(=O)CSC[C@@H](C(=O)N[C@@H](C)C(N)=O)NC(=O)[C@H](CO)NC(=O)[C@H](C(C)C)NC(=O)[C@H](CC2CCCCC2)NC(=O)[C@H](CC(N)=O)NC(=O)[C@@H](CC(C)C)NC1=O [Compound 2501] ({CH2CO}-FY(Carboxymethyl)N[Phe(3-Me)]V[Bip][Cit]K(Ac)[dL]N[Cha]VSCA-NH2; thioether N-14)
0.0452	CC(C)C[C@H]1NC(=O)[C@H](CCCN)NC(=O)[C@H](CCC(=O)O)NC(=O)[C@H](Cc2ccc(-c3ccccc3)cc2)NC(=O)[C@H](C(C)C)NC(=O)[C@H](Cc2c[nH]c3ccccc23)NC(=O)[C@H](CC(=O)O)NC(=O)[C@H](Cc2ccc(C#N)cc2)NC(=O)[C@H](Cc2ccccc2)NC(=O)CSC[C@@H](C(=O)N[C@@H](C)C(N)=O)NC(=O)[C@H]([C@@H](C)O)NC(=O)[C@H](C(C)C)NC(=O)[C@H](CC2CCCCC2)NC(=O)[C@H](CCN)NC1=O [Compound 2186] ({CH2CO}-F[Phe(4-CN)]DWV[Bip]E[Orn][dL][Dab][Cha]VTCA-NH2; thioether N-14)
